Test results published in US20240109942A1, “CHOLECYSTOKININ (CCK) SECRETION-PROMOTING PEPTIDE TARGETING CALCIUM-SENSING RECEPTOR, AND PREPARATION METHOD AND USE THEREOF” (University of Shanghai for Science and Technology, priority 2022, published 2024).
Where no end group is shown, it is not given here.

System: STC-1 cell
Test: MTT cell proliferation and cytotoxicity assay on STC-1 cell
Type: cell-based
Details: absorbance 570 nm, peptide 0, 1, 2, 4 mmol/L, FIG. 2
Procedure: An STC-1 cell was cultured in a dulbecco's modified eagle medium (DMEM) containing 10% fetal bovine serum (FBS), 1% non-essential amino acids (NEAA), 100 U/mL penicillin and 0.1 mg/mL streptomycin. The cell was incubated in a cell incubator containing 5% CO2 at 37° C. and was subcultured by means of trypsin digestion when reaching 80%-90% density.
The effect of the active peptide of QGDVVALPA on the viability of the STC-1 cell was tested and evaluated by means of 3-(4,5-dimethylthiazol-2-yl)-2,5-diphenyltetrazolium bromide [3-(4,5-di methyl-2-thiazolyl)-2,5-di phenyl]-2H-tetrazolium bromide, methyl thiazolyl tetrazolium (MTT)) cell proliferation and cytotoxicity. MTT was added into the STC-1 cell treated in a 96-well plate, and a metabolically active cell cleaved yellow tetrazolium salt MTT into a purple formazan crystal. Formazan formed was dissolved, absorbance was measured with a microplate reader at a measurement wavelength of 570 nm, and results were expressed as a percentage of a control group.

For “QGDVVALPA [QGDVVALPA, Gln-Gly-Asp-Val-Val-Ala-Leu-Pro-Ala]”, the “viability of the STC-1 cell compared with the control group” value was “not changed”.
